Data on one molecule can be found in ChEMBL document CHEMBL1773038, “In silico and in vitro validation of serine hydroxymethyltransferase as a chemotherapeutic target of the antifolate drug pemetrexed” (Eur J Med Chem, 2011).

Assay [1] deals with T1, Serine hydroxymethyltransferase, cytosolic (Homo sapiens, UniProt P34896).
T1 sequence (P34896 whole entry): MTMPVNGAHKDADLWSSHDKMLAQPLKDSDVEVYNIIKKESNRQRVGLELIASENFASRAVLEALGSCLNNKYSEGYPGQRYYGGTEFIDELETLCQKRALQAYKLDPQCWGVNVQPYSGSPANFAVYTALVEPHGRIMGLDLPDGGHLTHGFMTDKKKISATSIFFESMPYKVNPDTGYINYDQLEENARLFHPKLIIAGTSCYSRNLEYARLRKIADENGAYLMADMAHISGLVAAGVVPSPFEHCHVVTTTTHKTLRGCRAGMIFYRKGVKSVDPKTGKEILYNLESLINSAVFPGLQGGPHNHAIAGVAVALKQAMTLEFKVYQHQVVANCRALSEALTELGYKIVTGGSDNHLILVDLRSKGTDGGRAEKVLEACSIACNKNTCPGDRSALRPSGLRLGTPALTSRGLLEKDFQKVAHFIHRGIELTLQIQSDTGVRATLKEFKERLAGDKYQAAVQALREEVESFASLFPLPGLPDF
Kind of assay: Inhibition of human recombinant Serine hydroxymethyltransferase, cytosolic measured by slope intercepts of mixed-type inhibition against compound concentration by spectrophotometry.

The target in assay [2] is T1, Serine hydroxymethyltransferase, cytosolic. Kind of assay: Binding affinity to human recombinant Serine hydroxymethyltransferase, cytosolic by isothermal titration calorimetry. In general terms: In ITC the heat of successive injections is recorded.
The target is the same in assay [3]. The assay can be described thus: Mixed-type inhibition of human recombinant Serine hydroxymethyltransferase, cytosolic measured by Y-axes intercepts of mixed-type inhibition against compound concentration by spectrophotometry.
Assay [4] has the same target. The assay can be described thus: Competitive inhibition of human recombinant Serine hydroxymethyltransferase, cytosolic by spectrophotometry.

The Ki is a measure of affinity in units of concentration, obtained from inhibition or displacement. In general, Kd refers to the free concentration of one partner at which half of the binding sites on the other are occupied at equilibrium, for simple one-to-one binding.

Molecules are shown by their SMILES.

Consider `Nc1nc2[nH]cc(CCc3ccc(C(=O)N[C@@H](CCC(=O)O)C(=O)O)cc3)c2c(=O)[nH]1` [PEMETREXED], for which the Ki in assay [1] was 33 µM; in assay [3], 186 µM; in assay [4], 19.1 µM. For the same molecule, the Kd in assay [2] worked out at 16.9 µM.
